Molecular target: T1, Seed linoleate 13S-lipoxygenase-1 (Glycine max, UniProt P08170)
T1 sequence (P08170 whole entry): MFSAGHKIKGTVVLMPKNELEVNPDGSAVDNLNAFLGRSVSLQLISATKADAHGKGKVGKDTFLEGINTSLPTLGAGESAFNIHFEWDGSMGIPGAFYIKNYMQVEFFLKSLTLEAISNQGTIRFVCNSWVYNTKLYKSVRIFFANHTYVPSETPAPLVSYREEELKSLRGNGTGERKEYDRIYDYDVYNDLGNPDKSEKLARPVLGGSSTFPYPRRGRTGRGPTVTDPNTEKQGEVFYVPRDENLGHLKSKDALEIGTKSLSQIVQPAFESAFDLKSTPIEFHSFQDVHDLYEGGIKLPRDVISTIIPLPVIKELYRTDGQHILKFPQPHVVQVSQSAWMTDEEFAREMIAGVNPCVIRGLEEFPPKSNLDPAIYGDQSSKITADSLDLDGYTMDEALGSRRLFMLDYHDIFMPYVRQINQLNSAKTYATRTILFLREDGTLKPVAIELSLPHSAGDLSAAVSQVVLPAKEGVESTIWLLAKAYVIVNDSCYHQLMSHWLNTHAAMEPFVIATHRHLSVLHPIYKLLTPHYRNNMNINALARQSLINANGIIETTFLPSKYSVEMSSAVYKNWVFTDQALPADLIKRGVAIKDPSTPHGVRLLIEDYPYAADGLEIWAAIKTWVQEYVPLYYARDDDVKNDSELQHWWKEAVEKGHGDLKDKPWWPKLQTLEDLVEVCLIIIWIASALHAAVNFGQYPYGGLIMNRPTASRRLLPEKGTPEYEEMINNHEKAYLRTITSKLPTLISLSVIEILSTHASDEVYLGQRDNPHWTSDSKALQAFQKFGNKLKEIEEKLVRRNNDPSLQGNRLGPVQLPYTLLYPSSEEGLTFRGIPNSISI
Experiment: Inhibition of soybean lipoxygenase-1 assessed as inhibition of conversion of linoleic acid into hydroperoxy […] acid preincubated for 10 mins before substrate addition measured over 20 mins by spectrophotometric assay

C[C@H]1CCCC(=O)CCC/C=C/c2cc(O)cc(O)c2C(=O)O1 [ZEARALENONE]
IC50: 51 µM
